Reference: paper PMC9611727, “Optimization of a Novel Mandelamide-Derived Pyrrolopyrimidine Series of PERK Inhibitors” (Pharmaceutics, 2022)

Assays:
Test in all cases: scanMAX kinase panel
Type in all cases: binding
MAP3K2 = biological target: T1, MAP3K2 (Homo sapiens, UniProt Q9Y2U5); conditions: read-out: % Control; for remaining binding at 1 µM: 1000 nM
T1 construct: purchased DiscoverX scanMAX
T1 sequence (Q9Y2U5 1-619): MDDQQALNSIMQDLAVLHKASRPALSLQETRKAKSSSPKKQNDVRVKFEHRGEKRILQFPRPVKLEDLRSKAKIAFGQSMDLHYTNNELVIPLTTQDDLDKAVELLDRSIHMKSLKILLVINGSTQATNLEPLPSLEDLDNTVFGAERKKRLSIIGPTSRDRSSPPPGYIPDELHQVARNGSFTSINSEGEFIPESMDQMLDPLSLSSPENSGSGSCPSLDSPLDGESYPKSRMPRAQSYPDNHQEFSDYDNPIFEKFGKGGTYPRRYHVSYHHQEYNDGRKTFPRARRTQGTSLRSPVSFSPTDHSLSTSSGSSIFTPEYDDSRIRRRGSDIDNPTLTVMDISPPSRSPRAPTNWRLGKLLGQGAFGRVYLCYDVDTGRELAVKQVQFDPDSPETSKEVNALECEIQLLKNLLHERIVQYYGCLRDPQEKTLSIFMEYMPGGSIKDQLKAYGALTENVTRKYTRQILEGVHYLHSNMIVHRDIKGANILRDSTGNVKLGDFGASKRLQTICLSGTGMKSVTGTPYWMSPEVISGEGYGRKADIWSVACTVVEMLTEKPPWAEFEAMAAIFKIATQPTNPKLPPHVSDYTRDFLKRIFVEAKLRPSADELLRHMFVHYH
From the text: (§1) Supplemental Table S2. scanMAXSM Kinome Assay Results. Complete tabulated data of all 468 kinases from the panel, including
(§2) 403 wild-type and 65 mutant isoforms. […] Cmpd 11 and Cmpd 24

PAK3 = biological target: T2, PAK3 (Homo sapiens, UniProt O75914); conditions: read-out: % Control; for remaining binding at 1 µM: 1000 nM
T2 construct: purchased DiscoverX scanMAX
From the text: as §1, §2

EPHB6 = biological target: T3, EPHB6 (Homo sapiens, UniProt O15197); conditions: read-out: % Control; for remaining binding at 1 µM: 1000 nM
T3 construct: purchased DiscoverX scanMAX
T3 sequence (O15197 32-1021): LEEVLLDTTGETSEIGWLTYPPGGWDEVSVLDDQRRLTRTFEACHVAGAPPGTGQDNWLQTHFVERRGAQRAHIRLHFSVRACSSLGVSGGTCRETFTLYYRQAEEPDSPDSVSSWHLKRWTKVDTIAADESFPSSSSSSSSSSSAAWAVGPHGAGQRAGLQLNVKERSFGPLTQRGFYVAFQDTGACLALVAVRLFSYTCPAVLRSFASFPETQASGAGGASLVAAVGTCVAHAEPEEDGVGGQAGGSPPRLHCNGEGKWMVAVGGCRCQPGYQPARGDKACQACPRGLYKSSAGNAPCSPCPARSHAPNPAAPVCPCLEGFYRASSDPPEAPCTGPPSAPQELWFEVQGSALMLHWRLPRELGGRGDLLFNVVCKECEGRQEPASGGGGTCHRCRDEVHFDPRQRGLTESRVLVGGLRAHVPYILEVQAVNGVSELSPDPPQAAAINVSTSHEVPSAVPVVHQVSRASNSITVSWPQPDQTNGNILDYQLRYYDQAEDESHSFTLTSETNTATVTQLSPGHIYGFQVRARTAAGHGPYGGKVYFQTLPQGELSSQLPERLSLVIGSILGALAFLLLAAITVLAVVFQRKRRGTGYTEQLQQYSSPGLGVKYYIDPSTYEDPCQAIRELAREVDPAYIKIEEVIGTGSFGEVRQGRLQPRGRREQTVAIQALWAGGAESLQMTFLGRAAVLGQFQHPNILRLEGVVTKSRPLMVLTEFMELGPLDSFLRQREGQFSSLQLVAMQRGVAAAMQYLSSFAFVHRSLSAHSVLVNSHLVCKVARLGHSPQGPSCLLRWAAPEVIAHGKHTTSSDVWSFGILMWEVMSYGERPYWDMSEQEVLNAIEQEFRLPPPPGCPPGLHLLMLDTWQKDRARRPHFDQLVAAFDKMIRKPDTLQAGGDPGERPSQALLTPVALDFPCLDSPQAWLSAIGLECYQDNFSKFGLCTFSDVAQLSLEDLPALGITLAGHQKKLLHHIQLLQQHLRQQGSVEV
From the text: as §1, §2

FLT3(ITD,D835V) = test system: FLT3(ITD,D835V)
From the text: as §1, §2

PRKR = biological target: T4, PRKR (Homo sapiens, UniProt P19525); conditions: read-out: % Control; for remaining binding at 1 µM: 1000 nM
T4 construct: purchased DiscoverX scanMAX
T4 sequence (P19525 whole entry): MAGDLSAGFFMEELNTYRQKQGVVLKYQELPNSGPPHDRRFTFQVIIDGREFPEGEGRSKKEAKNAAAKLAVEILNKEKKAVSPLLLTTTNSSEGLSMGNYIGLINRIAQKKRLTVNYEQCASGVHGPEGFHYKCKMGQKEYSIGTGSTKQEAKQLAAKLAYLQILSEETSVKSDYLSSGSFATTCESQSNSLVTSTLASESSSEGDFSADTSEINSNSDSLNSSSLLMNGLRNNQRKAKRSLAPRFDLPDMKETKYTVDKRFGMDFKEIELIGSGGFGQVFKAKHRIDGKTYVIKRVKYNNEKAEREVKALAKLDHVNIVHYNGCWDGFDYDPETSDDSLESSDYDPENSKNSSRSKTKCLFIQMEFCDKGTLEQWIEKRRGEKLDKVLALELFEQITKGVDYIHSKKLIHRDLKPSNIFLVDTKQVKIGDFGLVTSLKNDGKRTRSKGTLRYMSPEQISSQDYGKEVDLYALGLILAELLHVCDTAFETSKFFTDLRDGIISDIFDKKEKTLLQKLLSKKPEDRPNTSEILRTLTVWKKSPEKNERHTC
From the text: as §1, §2

RIOK2 = biological target: T5, RIOK2 (Homo sapiens, UniProt Q9BVS4); conditions: read-out: % Control; for remaining binding at 1 µM: 1000 nM
T5 construct: purchased DiscoverX (scanMAX panel)
T5 sequence (Q9BVS4 whole entry): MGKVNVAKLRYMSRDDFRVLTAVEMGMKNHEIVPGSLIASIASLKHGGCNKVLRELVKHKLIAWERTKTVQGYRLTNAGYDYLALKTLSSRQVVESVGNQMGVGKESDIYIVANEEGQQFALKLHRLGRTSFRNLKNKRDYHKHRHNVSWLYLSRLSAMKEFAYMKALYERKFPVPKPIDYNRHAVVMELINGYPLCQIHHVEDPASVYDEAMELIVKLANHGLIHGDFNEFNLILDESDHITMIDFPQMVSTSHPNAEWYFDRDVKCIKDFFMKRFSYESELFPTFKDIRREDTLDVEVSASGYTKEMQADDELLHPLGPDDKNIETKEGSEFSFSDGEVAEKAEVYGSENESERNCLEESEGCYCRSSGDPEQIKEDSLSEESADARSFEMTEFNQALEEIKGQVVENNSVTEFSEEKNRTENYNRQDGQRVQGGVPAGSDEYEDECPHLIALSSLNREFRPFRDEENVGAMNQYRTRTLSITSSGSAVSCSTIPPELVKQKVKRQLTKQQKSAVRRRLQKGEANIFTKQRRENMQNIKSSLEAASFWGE
From the text: as §1, §2

LOK = biological target: T6, LOK (Homo sapiens, UniProt O94804); conditions: read-out: % Control; for remaining binding at 1 µM: 1000 nM
T6 construct: purchased DiscoverX scanMAX
T6 sequence (O94804 whole entry): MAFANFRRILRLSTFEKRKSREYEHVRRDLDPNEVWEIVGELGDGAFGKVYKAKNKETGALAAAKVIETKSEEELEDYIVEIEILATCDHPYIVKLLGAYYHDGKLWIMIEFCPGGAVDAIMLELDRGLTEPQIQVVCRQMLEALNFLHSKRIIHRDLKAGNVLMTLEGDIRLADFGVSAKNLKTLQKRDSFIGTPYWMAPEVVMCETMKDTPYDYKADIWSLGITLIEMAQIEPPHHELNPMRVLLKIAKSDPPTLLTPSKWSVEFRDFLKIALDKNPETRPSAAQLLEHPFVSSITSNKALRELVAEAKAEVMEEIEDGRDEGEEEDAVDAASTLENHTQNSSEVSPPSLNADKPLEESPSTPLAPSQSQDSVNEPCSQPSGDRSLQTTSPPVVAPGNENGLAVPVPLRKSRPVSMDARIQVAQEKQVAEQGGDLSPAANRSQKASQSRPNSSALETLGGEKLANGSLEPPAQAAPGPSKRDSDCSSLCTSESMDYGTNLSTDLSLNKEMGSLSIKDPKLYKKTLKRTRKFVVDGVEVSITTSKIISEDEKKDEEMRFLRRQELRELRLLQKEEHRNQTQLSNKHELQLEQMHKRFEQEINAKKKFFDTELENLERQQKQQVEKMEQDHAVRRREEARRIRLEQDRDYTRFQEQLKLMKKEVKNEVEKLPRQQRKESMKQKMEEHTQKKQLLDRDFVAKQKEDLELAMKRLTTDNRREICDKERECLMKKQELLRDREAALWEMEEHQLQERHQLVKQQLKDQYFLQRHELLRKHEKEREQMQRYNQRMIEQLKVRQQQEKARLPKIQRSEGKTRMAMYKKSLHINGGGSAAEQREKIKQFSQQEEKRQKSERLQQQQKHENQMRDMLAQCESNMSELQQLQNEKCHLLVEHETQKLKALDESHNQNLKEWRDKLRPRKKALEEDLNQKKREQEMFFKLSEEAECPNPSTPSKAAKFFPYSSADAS
From the text: as §1, §2

HIPK4 = biological target: T7, HIPK4 (Homo sapiens, UniProt Q8NE63); conditions: read-out: % Control; for remaining binding at 1 µM: 1000 nM
T7 construct: purchased DiscoverX scanMAX
T7 sequence (Q8NE63 1-616): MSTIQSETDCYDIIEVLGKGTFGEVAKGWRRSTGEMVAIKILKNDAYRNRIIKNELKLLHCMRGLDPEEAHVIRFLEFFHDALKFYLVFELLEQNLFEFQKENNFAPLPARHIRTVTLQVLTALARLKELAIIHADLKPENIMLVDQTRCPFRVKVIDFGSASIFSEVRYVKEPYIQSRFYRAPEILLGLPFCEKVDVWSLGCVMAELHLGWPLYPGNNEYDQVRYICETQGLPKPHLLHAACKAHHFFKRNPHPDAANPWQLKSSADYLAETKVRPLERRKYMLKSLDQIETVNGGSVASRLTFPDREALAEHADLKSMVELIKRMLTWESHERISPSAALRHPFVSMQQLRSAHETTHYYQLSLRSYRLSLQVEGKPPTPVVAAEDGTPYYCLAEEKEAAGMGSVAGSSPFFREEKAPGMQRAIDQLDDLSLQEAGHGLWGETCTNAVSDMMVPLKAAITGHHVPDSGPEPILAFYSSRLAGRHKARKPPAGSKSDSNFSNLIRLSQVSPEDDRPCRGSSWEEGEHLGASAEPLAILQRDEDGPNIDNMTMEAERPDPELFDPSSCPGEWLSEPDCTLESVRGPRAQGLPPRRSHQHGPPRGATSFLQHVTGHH
From the text: as §1, §2

TRKA = biological target: T8, TRKA (Homo sapiens, UniProt P04629); conditions: read-out: % Control; for remaining binding at 1 µM: 1000 nM
T8 construct: purchased DiscoverX (scanMAX panel)
T8 sequence (P04629 33-796): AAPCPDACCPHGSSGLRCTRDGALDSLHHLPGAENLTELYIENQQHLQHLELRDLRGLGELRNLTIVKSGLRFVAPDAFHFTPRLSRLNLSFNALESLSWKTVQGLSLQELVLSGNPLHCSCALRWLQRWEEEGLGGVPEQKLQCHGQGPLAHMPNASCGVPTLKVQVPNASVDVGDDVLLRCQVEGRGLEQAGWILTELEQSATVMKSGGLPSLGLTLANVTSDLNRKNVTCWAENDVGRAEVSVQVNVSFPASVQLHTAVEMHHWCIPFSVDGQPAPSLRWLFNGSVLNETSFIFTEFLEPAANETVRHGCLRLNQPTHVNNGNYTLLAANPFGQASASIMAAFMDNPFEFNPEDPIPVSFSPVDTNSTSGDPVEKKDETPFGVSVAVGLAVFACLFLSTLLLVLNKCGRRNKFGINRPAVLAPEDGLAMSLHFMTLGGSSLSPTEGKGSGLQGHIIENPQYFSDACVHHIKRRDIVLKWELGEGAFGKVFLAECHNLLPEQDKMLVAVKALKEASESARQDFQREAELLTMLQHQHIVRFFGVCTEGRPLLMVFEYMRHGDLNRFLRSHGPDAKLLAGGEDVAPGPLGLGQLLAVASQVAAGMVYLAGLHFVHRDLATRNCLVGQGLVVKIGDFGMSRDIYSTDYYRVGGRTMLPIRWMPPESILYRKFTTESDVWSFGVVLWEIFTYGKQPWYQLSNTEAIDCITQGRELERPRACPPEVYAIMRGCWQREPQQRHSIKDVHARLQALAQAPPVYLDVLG
From the text: as §1, §2

PDGFRB = biological target: T9, PDGFRB (Homo sapiens, UniProt P09619); conditions: read-out: % Control; for remaining binding at 1 µM: 1000 nM
T9 construct: purchased DiscoverX scanMAX
T9 sequence (P09619 33-1106): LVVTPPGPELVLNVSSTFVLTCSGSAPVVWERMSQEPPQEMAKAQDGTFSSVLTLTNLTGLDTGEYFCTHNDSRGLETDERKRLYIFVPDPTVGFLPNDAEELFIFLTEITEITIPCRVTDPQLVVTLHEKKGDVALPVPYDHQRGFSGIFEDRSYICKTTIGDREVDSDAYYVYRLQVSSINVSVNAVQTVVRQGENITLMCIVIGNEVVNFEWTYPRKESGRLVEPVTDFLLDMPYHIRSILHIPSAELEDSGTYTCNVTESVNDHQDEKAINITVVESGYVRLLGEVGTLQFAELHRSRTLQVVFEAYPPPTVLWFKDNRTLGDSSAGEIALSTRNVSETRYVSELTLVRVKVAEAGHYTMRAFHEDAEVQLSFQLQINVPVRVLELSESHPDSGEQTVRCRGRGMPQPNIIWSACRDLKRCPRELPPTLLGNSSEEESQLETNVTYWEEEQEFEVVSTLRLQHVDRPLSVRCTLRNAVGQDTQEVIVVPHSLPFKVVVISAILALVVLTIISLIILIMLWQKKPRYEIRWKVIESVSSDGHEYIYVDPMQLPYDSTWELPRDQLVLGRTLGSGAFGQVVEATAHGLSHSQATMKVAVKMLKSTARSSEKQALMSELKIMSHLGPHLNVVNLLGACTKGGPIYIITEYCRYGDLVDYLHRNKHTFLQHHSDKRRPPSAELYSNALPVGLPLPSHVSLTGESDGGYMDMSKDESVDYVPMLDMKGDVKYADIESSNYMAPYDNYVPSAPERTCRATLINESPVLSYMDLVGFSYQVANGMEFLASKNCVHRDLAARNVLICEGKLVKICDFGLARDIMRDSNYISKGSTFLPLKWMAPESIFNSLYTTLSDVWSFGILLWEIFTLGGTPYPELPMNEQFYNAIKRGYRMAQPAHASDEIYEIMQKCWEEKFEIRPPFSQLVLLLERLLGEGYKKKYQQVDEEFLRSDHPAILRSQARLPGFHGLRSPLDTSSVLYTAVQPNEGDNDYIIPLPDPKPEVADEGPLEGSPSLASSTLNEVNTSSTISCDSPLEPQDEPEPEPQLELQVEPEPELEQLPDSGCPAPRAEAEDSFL
From the text: as §1, §2

TRKC = biological target: T10, TRKC (Homo sapiens, UniProt Q16288); conditions: read-out: % Control; for remaining binding at 1 µM: 1000 nM
T10 construct: purchased DiscoverX (scanMAX panel)
T10 sequence (Q16288 32-839): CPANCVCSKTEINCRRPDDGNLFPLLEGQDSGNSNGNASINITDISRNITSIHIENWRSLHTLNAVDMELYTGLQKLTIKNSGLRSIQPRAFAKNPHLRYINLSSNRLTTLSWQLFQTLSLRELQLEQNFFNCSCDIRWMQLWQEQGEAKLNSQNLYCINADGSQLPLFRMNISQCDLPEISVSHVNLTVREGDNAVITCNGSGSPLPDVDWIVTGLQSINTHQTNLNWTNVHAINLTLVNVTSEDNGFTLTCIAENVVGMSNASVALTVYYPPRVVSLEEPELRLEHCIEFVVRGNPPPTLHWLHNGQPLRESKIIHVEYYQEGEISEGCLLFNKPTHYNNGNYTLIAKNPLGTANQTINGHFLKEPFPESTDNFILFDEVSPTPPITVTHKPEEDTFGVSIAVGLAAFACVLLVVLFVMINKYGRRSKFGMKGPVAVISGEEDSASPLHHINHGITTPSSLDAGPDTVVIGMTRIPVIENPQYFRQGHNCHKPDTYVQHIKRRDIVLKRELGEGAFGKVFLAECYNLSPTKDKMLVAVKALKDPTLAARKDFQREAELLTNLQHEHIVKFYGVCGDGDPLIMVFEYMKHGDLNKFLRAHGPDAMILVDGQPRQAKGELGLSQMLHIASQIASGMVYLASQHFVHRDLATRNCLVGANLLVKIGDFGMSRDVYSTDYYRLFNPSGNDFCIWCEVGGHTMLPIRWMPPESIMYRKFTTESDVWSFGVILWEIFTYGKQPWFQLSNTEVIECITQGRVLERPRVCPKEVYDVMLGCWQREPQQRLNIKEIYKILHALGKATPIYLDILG
From the text: as §1, §2

| Compound | remaining binding at 1 µM (MAP3K2) [%] | remaining binding at 1 µM (PAK3) [%] | remaining binding at 1 µM (EPHB6) [%] | % Control (FLT3(ITD,D835V); 1000 nM) [%] | remaining binding at 1 µM (PRKR) [%] | remaining binding at 1 µM (RIOK2) [%] | remaining binding at 1 µM (LOK) [%] | remaining binding at 1 µM (HIPK4) [%] | remaining binding at 1 µM (TRKA) [%] | remaining binding at 1 µM (PDGFRB) [%] | remaining binding at 1 µM (TRKC) [%] | other results |
| --- | --- | --- | --- | --- | --- | --- | --- | --- | --- | --- | --- | --- |
| Cc1cc(NC(=O)[C@H](O)c2cccc(F)c2)ccc1-c1cn(C)c2ncnc(N)c12 [Compound 11, (R)-N-(4-(4-amino-7-methyl-7H-pyrrolo[2,3-d]pyrimidin-5-yl)-3-methylphenyl)-2-(3-fluorophenyl)-2-hydroxy acetamide] | 14 | 36 | 2.6 | 89 | 42 | 20 | 4 | 16 | 12 | 40 | 9.5 |  |
| Cc1nc(N)c2c(-c3ccc(NC(=O)[C@H](O)c4cccc(C(F)(F)F)c4)cc3C)cn(C)c2n1 [Compound 26] | 89 | 31 | 48 | 75 | 96 | 92 | 12 | 3.8 | 3.4 | 11 | 10 | remaining binding at 0.1 µM (MAP3K2; 100 nM): 100%; remaining binding at 0.1 µM (PAK3; 100 nM): 97%; remaining binding at 0.1 µM (EPHB6; 100 nM): 94%; % Control (FLT3(ITD,D835V); 100 nM): 100%; remaining binding at 0.1 µM (PRKR; 100 nM): 91%; remaining binding at 0.1 µM (RIOK2; 100 nM): 91%; remaining binding at 0.1 µM (LOK; 100 nM): 94%; remaining binding at 0.1 µM (HIPK4; 100 nM): 69%; remaining binding at 0.1 µM (TRKA; 100 nM): 29%; remaining binding at 0.1 µM (PDGFRB; 100 nM): 100%; remaining binding at 0.1 µM (TRKC; 100 nM): 100% |
| Cc1nc(N)c2c(-c3ccc(NC(=O)[C@H](O)c4cccc(F)c4)cc3C)cn(C)c2n1 [Compound 24] | 100 | 100 | 100 | 100 | 42 | 89 | 88 | 100 | 67 | 100 | 79 |  |
